Earlier results as cited in US6696276B2, “Vasopermeability-enhancing conjugates” (priority 1988, dated 2004).

Details: as little as

Structure (SMILES) | amount eliciting erythema and wheal formation
CCCCC/C=C\C\C=C/C=C/C=C/[C@@H](SC[C@H](NC(=O)CC[C@H](N)C(=O)O)C(=O)NCC(=O)O)[C@@H](O)CCCC(=O)O [leukotriene C4] | 1 nmol
CCCCC/C=C\C\C=C/C=C/C=C/[C@@H](SC[C@H](N)C(=O)O)[C@@H](O)CCCC(=O)O [leukotriene E4] | 1 nmol
CCCCC/C=C\C\C=C/C=C/C=C/[C@@H](SC[C@H](N)C(=O)NCC(=O)O)[C@@H](O)CCCC(=O)O [leukotriene D4] | 1 nmol
